# Legend:
# [1] = biological target: T1, B1R receptor of the rat (CHO K1 cells stably transfected with the B1R gene of the rat) (Rattus norvegicus, UniProt P97583); experiment: Functional study on the bradykinin receptor 1 (B1R), Ca2+ fluorescence (Fluo-4) FLIPR/Novostar assay, rB1R cells; format: cell-based; details: CHO-K1, 10 μM, read-out: % inhibition (rat B1R) at 10 μM
# T1 construct: expressed in transfected cells; host or cells: CHO K1 cells (Chinese hamster ovary), stably transfected
# T1 sequence (P97583 1-337): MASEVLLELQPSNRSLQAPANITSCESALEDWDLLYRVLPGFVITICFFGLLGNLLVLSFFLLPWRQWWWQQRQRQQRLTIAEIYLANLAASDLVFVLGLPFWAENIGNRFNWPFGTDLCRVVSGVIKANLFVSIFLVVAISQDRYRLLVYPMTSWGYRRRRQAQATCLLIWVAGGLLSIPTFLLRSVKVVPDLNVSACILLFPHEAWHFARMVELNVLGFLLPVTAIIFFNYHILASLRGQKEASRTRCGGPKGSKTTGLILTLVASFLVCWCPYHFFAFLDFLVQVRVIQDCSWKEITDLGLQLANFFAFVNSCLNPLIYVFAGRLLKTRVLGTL
# How it was run: (§1)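 Stably transfected CHO K1 cells carrying human or rat B1R were Fluo-4 loaded and Ca2+ fluorescence read by FLIPR or Novostar. Compounds were added first at 10 μM for % activation, then the EC80 agonist was applied after 6-20 min (human: Lys-Des-Arg9-bradykinin; rat: Des-Arg9-bradykinin). % inhibition is relative to maximum achievable inhibition, and IC50 comes from concentration series.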
# [2] = biological target: T2, human B1R receptor (CHO K1 cells stably transfected with the human B1R gene) (Homo sapiens, UniProt P46663); experiment: Functional study on the bradykinin receptor 1 (B1R), Ca2+ fluorescence (Fluo-4) FLIPR/Novostar assay, hB1R cells; format: cell-based; details: CHO-K1, read-out: % inhibition (human B1R) at 10 μM
# T2 construct: expressed in transfected cells; host or cells: CHO K1 cells (Chinese hamster ovary), stably transfected
# T2 sequence (P46663 1-353): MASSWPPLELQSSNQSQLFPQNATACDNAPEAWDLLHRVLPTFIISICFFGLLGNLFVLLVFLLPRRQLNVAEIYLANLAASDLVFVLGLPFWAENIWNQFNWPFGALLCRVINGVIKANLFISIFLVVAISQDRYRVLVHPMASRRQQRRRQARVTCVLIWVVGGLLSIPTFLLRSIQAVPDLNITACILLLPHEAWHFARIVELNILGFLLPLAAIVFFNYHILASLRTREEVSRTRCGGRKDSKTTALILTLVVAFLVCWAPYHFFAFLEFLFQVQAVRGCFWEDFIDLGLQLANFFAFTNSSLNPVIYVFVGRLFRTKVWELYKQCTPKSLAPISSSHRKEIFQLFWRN
# How it was run: as §1
Structure (SMILES),inhibition at 10 µM [1] [%],inhibition at 10 µM [2] [%]
"CN(C(=O)c1ccc2c(c1)[C@H](NS(=O)(=O)c1ccccc1)CC2)C1CCN(c2ccncc2)CC1 [Example H-74, (3R)-3-(Benzenesulfonamido)-N-methyl-N-(1-pyridin-4-yl-piperidin-4-yl)-2,3-dihydro-1H-indene-5-carboxylic acid amide]",104,100
"CN(C(=O)c1ccc2c(c1)[C@H](NC(=O)c1ccc(F)cc1)CC2)C1CCN(c2ccncc2)CC1 [Example H-75, (3R)-3-[(4-Fluoro-benzoyl)amino]-N-methyl-N-(1-pyridin-4-yl-piperidin-4-yl)-2,3-dihydro-1H-indene-5-carboxylic acid amide]",105,100
"CN(C(=O)c1ccc2c(c1)[C@H](NC(=O)C1CCOCC1)CC2)C1CCN(c2ccncc2)CC1 [Example H-76, N-[(1R)-6-[Methyl-(1-pyridin-4-yl-piperidin-4-yl)-carbamoyl]-2,3-dihydro-1H-yl)-1-2,3-tetrahydro-pyran-4-carboxylic acid amide]",107,95
"CCN(C(=O)c1ccc2c(c1)[C@H](NC(=O)c1ccccc1Cl)CC2)C1CCN(c2ccncc2)CC1 [Example H-77, (3R)-3-[(2-Chloro-benzoyl)amino]-N-ethyl-N-(1-pyridin-4-yl-piperidin-4-yl)-2,3-dihydro-1H-indene-5-carboxylic acid amide]",104,100
"CN(C(=O)c1ccc2c(c1)[C@H](NC(=O)c1ccccc1Cl)CC2)C1CCN(c2ccc(F)cc2)CC1 [Example H-78, (3R)-3-[(2-Chloro-benzoyl)amino]-N-[1-(4-fluorophenyl)-pipendin-4-yl]-N-methyl-2,3-dihydro-1H-indene-5-carboxylic acid amide]",85,31
"CCN(C(=O)c1ccc2c(c1)[C@H](NC(=O)c1ccccc1Cl)CC2)C1CCN(c2ccnc(C)c2)CC1 [Example H-79, (3R)-3-[(2-Chloro-benzoyl)amino]-N-ethyl-N-[1-(2-methyl-pyridin-4-yl)-piperidin-4-yl]-2,3-dihydro-1H-indene-5-carboxylic acid amide]",110,100
"CN(C(=O)c1cc(F)c2c(c1)[C@H](NC(=O)c1ccccc1Cl)CCO2)C1CCN(c2ccncc2)CC1 [Example H-80, (4R)-4-[(2-Chloro-benzoyl)amino]-8-fluoro-N-methyl-N-(1-pyridin-4-yl-piperidin-4-yl)-3,4-dihydro-2H-chromene-6-carboxylic acid amide]",110,100
"Cc1cc(N2CCC(N(C)C(=O)c3cc(F)c4c(c3)[C@H](NC(=O)c3ccccc3Cl)CCO4)CC2)nc(C)n1 [Example H-81, (4R)-4-[(2-Chloro-benzoyl)amino]-N-[1-(2,6-dimethyl-pyrimidin-4-yl)-piperidin-4-yl]-8-fluoro-N-methyl-3,4-dihydro-2H-chromene-6-carboxylic acid amide]",109,95
"CN(C(=O)c1ccc2c(c1)[C@H](NC(=O)C1CCc3ccccc31)CC2)C1CCN(c2ccncc2)CC1 (stereo partly drawn) [Example H-82, (3R)-3-(2,3-Dihydro-1H-inden-1-carbonylamino)-N-methyl-N-(1-pyridin-4-yl-piperidin-4-yl)-2,3-dihydro-1H-indene-5-carboxylic acid amide]",112,100
"CN(C(=O)c1ccc2c(c1)[C@H](NC(=O)c1cncc3ccccc13)CC2)C1CCN(c2ccncc2)CC1 [Example H-83, N-[(1R)-6-[Methyl-(1-pyridin-4-yl-piperidin-4-yl)-carbamoyl]-2,3-dihydro-1H-inden-1-yl]-isoquinoline-4-carboxylic acid amide]",111,100

# Results, then the compound that gave them:
inhibition at 10 µM [1] [%],inhibition at 10 µM [2] [%],Structure (SMILES)
103,100,"CN(C(=O)c1ccc2c(c1)[C@H](NC(=O)C1CCOc3ccccc31)CC2)C1CCN(c2ccncc2)CC1 (stereo partly drawn) [Example H-84, N-[(1R)-6-[Methyl-(1-pyridin-4-yl-piperidin-4-yl)-carbamoyl]-2,3-dihydro-1H-inden-1-yl]-3,4-dihydro-2H-chromene-4-carboxylic acid amide]"
103,100,"Cc1cc(N2CCC(N(C)C(=O)c3ccc4c(c3)[C@H](NC(=O)CC(C)C)CC4)CC2)ccn1 [Example H-85, (3R)-N-Methyl-3-(3-methyl-butanoylamino)-N-[1-(2-methyl-pyridin-4-yl)-piperidin-4-yl]-2,3-dihydro-1H-indene-5-carboxylic acid amide]"
98,100,"Cc1cc(N2CCC(N(C)C(=O)c3ccc4c(c3)[C@H](NC(=O)CC(C)C)CC4)CC2)nc(C)n1 [Example H-86, (3R)-N-[1-(2,6-Dimethyl-pyrimidin-4-yl)-piperidin-4-yl]-N-methyl-3-(3-methyl-butanoylamino)-2,3-dihydro-1H-indene-5-carboxylic acid amide]"
104,39,"CN(C(=O)c1cc(F)c2c(c1)[C@H](N1Cc3cccc(Cl)c3C1=O)CCO2)C1CCN(c2ccncc2)CC1 [Example H-87, (4R)-4-(4-Chloro-3-oxo-1,2-dihydro-isoindol-2-yl)-8-fluoro-N-methyl-N-(1-pyridin-4-yl-piperidin-4-yl)-3,4-dihydro-2H-chromene-6-carboxylic acid amide]"
104,96,"Cc1cc(N2CCC(N(C)C(=O)c3ccc4c(c3)[C@H](NC(=O)C3CCOCC3)CC4)CC2)ccn1 [Example H-88, N-[(1R)-6-[Methyl-[1-(2-methyl-pyridin-4-yl)-piperidin-4-yl]-carbamoyl]-2,3-dihydro-1H-inden-1-yl]-tetrahydro-pyran-4-carboxylic acid amide]"
89,74,"Cc1cc(N2CCC(N(C)C(=O)c3ccc4c(c3)[C@H](NC(=O)C3CCOCC3)CC4)CC2)nc(C)n1 [Example H-89, N-[(1R)-6-[[1-(2,6-Dimethyl-pyrimidin-4-yl)-piperidin-4-yl]-methyl-carbamoyl]-2,3-dihydro-1H-inden-1-yl]-tetrahydro-pyran-4-carboxylic acid amide]"
105,62,"CN(C(=O)c1ccc2c(c1)[C@H](NC(=O)c1ccccc1Cl)CC2)C1CCN(C(=O)CCN2CCCCC2)CC1 [Example H-90, (3R)-3-[(2-Chloro-benzoyl)amino]-N-methyl-N-[1-(3-piperidin-1-yl-propanoyl)-piperidin-4-yl]-2,3-dihydro-1H-indene-5-carboxylic acid amide]"
108,100,"Cc1cc(N2CCC(N(C)C(=O)c3ccc4c(c3)[C@H](NC(=O)c3cccnc3C(F)(F)F)CC4)CC2)nc(C)n1 [Example H-91, N-[(1R)-6-[[1-(2,6-Dimethyl-pyrimidin-4-yl)-piperidin-4-yl]-methyl-carbamoyl]-2,3-dihydro-1H-inden-1-yl]-2-(trifluoromethyl)-pyridine-3-carboxylic acid amide]"
106,100,"Cc1cc(N2CCC(N(C)C(=O)c3ccc4c(c3)[C@H](NC(=O)c3cccnc3C(F)(F)F)CC4)CC2)ccn1 [Example H-92, N-[(1R)-6-[Methyl-[1-(2-methyl-pyridin-4-yl)-piperidin-4-yl]-carbamoyl]-2,3-dihydro-1H-inden-1-yl]-2-(trifluoromethyl)-pyridine-3-carboxylic acid amide]"
103,100,"Cc1cc(N2CCC(N(C)C(=O)c3ccc4c(c3)[C@H](NC(=O)CCC3CCCC3)CC4)CC2)ccn1 [Example H-93, (3R)-3-(3-Cyclopentyl-propanoylamino)-N-methyl-N-[1-(2-methyl-pyridin-4-yl)-piperidin-4-yl]-2,3-dihydro-1H-indene-5-carboxylic acid amide]"
99,100,"Cc1cc(N2CCC(N(C)C(=O)c3ccc4c(c3)[C@H](NC(=O)CCC3CCCC3)CC4)CC2)nc(C)n1 [Example H-94, (3R)-3-(3-Cyclopentyl-propanoylamino)-N-[1-(2,6-dimethyl-pyrimidin-4-yl)-piperidin-4-yl]-N-methyl-2,3-dihydro-1H-indene-5-carboxylic acid amide]"
104,100,"Cc1cc(N2CCC(N(C)C(=O)c3ccc4c(c3)[C@H](NC(=O)c3cc(C)on3)CC4)CC2)ccn1 [Example H-95, 5-Methyl-N-[(1R)-6-[methyl-[1-(2 methyl-pyridin-4-yl)-piperidin-4-yl]-carbamoyl]-2,3-dihydro-1H-inden-1-yl]-isoxazole-3-carboxylic acid amide]"
